Measurements: patent US8796460B2, “Compounds for inhibiting KSP kinesin activity” (Mercky Sharp & Dohme Corp., priority 2007, dated 2014)

The compounds below were run on HCT116 colon cancer cells (assay: KSP Cellular Assay (percent of cells staining positive for Phos-Histone H3 / Phos-MPM2)). Conditions: Homo sapiens, HCT-116, 16 h, Table 101; HCT116 cells, 16 hours with drug; read-out: ED50 (nM) Range.
Format: cell-based
Description: HCT116 colon cancer cells were grown in DMEM:F12 media with 10% heat inactivated FBS at 37 degrees with 5% CO2. Cells were plated at 7,500 cells per well in PDL coated 384-well tissue culture plates. 6 hours later media was removed and new media containing drug was added. Cells were incubated with drug for 16 hours. All further steps were performed at room temperature in the dark. Cells were fixed with 25 ul/well Prefer fixation solution plus 250 nM Hoechst dye and incubated for 30 minutes. The fixation solution was removed and cells were washed with PBS. Cells were then permeabilized with 25 ul/well 0.2% Triton-X in PBS and incubated for 10 minutes. Cells were washed with PBS and then incubated with 25 ul/well PBS containing 3% FBS for 30 minutes. Cells were then stained overnight at 4 degrees with 25 ul/well antibody solution in PBS plus 3% FBS. Antibodies used were Phos-Histone H3 (ser10)-Alexa Flur 488 Conjugate and Phos-MPM2 Texas Red Conjugate. Cells were washed with PBS and then immunofluorescence images captured with HT Pathway microscope. The percent of cells staining positive was calculated and EC50 values for the compounds of the invention that were tested were determined using Excel XLfit.
EC50 Determinations: Dose-response curves were plotted from inhibition data generated each in duplicate, from 8 point serial dilutions of inhibitory compounds. Concentration of compound was plotted against enzyme activity (OD reading). To generate EC50 values, the dose-response curves were then fitted to a standard sigmoidal curve and EC50 values were derived by nonlinear regression analysis.

SMILES | EC50
CC(=O)N1N=C(c2cc(F)ccc2F)SC12CC(C)Oc1ccc(F)cc12 (centres unmarked) [compound 115] | > 1000 nM
CC(=O)N1N=C(c2cc(F)ccc2F)SC12CCSc1ccccc12 (centres unmarked) [compound 104] | > 1000 nM
CC(=O)N1N=C(C2=C(F)CCC(F)=C2)SC12Cc1ccccc12 (centres unmarked) [compound 120] | ≤ 500 nM
CC(=O)N1N=C(c2cc(F)ccc2F)SC12CCOc1ccccc12 (centres unmarked) [compound 102] | ≤ 500 nM
CC(=O)N1N=C(c2cc(F)ccc2F)SC12COc1ccccc12 (centres unmarked) [compound 106] | ≤ 500 nM

Same assay, conditions: Homo sapiens, HCT-116, 16 h, Table 401; HCT116 cells, 16 hours with drug; read-out: ED50 (nM) Range

SMILES | EC50
O=C(CCCN1CCOCC1)N1N=C(c2cc(F)ccc2F)SC12CCOc1ccccc12 (centres unmarked) [compound 495] | > 500 nM
CNCCCC(=O)N1N=C(c2cc(F)ccc2F)SC12CCOc1ccccc12 (centres unmarked) [compound 489] | ≤ 500 nM
N[C@H](C(=O)N1N=C(c2cc(F)ccc2F)SC12CCc1ccccc12)C1CC1 (some centres unmarked) [compound 420] | > 1000 nM
CC(C)[C@H](O)C(=O)N1N=C(c2cc(F)ccc2F)SC12CCCc1ccsc12 (some centres unmarked) [compound 424] | > 1000 nM
O=C(C1CCCNC1)N1N=C(c2cc(F)ccc2F)SC12CCCc1ccsc12 (centres unmarked) [compound 426] | > 1000 nM
O=C(C1CCNCC1)N1N=C(c2cc(F)ccc2F)SC12CCc1ccccc12 (centres unmarked) [compound 422] | > 1000 nM
O=C([C@@H]1CCCN1)N1N=C(c2cc(F)ccc2F)SC12CCCc1ccsc12 (some centres unmarked) [compound 427] | > 1000 nM
O=C(C1CCCCN1)N1N=C(c2cc(F)ccc2F)SC12CCOc1ccccc12 (centres unmarked) [compound 404] | > 1000 nM
O=C(CCCN1CCCC1)N1N=C(c2cc(F)ccc2F)SC12CCc1ccccc12 (centres unmarked) [compound 454] | ≤ 500 nM
NC(=O)CCC(=O)N1N=C(c2cc(F)ccc2F)SC12CCOc1ccccc12 (centres unmarked) [compound 488] | > 500 nM
NCCCCC(=O)N1N=C(c2cc(F)ccc2F)SC12CCOc1ccccc12 (centres unmarked) [compound 487] | ≤ 500 nM
O=C(CCC1CCCNC1)N1N=C(c2cc(F)ccc2F)SC12CCOc1ccccc12 (centres unmarked) [compound 482] | ≤ 500 nM
CC(C)[C@H](O)C(=O)N1N=C(c2cc(F)ccc2F)SC12CCCc1ccccc12 (some centres unmarked) [compound 402] | > 1000 nM
CC(C)CC(=O)N1N=C(c2cc(F)ccc2F)SC12CCOc1ccccc12 (centres unmarked) [compound 468] | > 1000 nM
CC(C)[C@H](O)C(=O)N1N=C(c2cc(F)ccc2F)SC12CCCc1sccc12 (some centres unmarked) [compound 409] | > 1000 nM
CC(C)C(=O)N1N=C(c2cc(F)ccc2F)SC12CCOc1ccccc12 (centres unmarked) [compound 467] | > 1000 nM
O=C(CC1CCCNC1)N1N=C(c2cc(F)ccc2F)SC12CCc1ccccc12 (centres unmarked) [compound 446] | 500 to 1000 nM
O=C(Cc1cccnc1)N1N=C(c2cc(F)ccc2F)SC12CCc1ccccc12 (centres unmarked) [compound 450] | 500 to 1000 nM
O=C(CCC1CCCCN1)N1N=C(c2cc(F)ccc2F)SC12CCOc1ccccc12 (centres unmarked) [compound 497] | 500 to 1000 nM
O=C(N1N=C(c2cc(F)ccc2F)SC12CCOc1ccccc12)C(F)(F)F (centres unmarked) [compound 470] | > 1000 nM
O=C(Cc1cccnc1)N1N=C(c2cc(F)ccc2F)SC12CCOc1ccccc12 (centres unmarked) [compound 484] | 500 to 1000 nM
CO[C@@H](C)C(=O)N1N=C(c2cc(F)ccc2F)SC12CCOc1ccccc12 (some centres unmarked) [compound 435] | 500 to 1000 nM
N[C@H]1CC[C@@H](C(=O)N2N=C(c3cc(F)ccc3F)SC23CCOc2ccccc23)CC1 (some centres unmarked) [compound 481] | > 500 nM
O=C(CC1CNC1)N1N=C(c2cc(F)ccc2F)SC12CCc1ccccc12 (centres unmarked) [compound 460] | ≤ 500 nM
CCC(=O)N1N=C(c2cc(F)ccc2F)SC12CCOc1ccccc12 (centres unmarked) [compound 465] | ≤ 500 nM
O=C(C1CCCNC1)N1N=C(c2cc(F)ccc2F)SC12CCOc1ccccc12 (centres unmarked) [compound 407] | > 1000 nM

Same assay, conditions: Homo sapiens, HCT-116, 16 h, Table 701; HCT116 cells, 16 hours with drug; read-out: EC50 (nM) Range

SMILES | EC50
CC(C)N1N=C(c2cc(F)ccc2F)SC12CCOc1ccccc12 (centres unmarked) [compound 702] | > 1000 nM

Same assay, conditions: Homo sapiens, HCT-116, 16 h, Table 801; HCT116 cells, 16 hours with drug; read-out: EC50 (nM) Range

SMILES | EC50
CC(=O)N1N=C(c2cc(F)ccc2F)S[C@@]12c1cc(Cl)ccc1OC[C@H]2CCN [compound 811] | ≤ 500 nM
CC(=O)N1N=C(c2cc(F)ccc2F)S[C@@]12c1cccc(F)c1OC[C@H]2CCN [compound 809] | ≤ 500 nM
CC(=O)N1N=C(c2cc(F)ccc2F)S[C@@]12c1cc(F)c(F)cc1OC[C@H]2CCN [compound 807] | ≤ 500 nM
CC(=O)N1N=C(c2cc(F)ccc2F)S[C@]12c1cc(F)ccc1OC[C@H]2CCN [compound 803] | ≤ 500 nM
CC(=O)N1N=C(c2cc(F)ccc2F)S[C@@]12c1ccccc1OC[C@@H]2CCN [compound 814] | ≤ 500 nM
CC(=O)N1N=C(c2cc(F)ccc2F)S[C@]12c1ccccc1OC[C@H]2CCN [compound 817] | ≤ 500 nM

Same assay, conditions: Homo sapiens, HCT-116, 16 h, table of Example 901; HCT116 cells, 16 hours with drug; read-out: EC50 (nM) Range

SMILES | EC50
CC(=O)N1N=C(c2cc(F)ccc2F)S[C@]12c1ccccc1OC[C@@H]2CC#N [compound 905] | > 1000 nM

Same assay, conditions: Homo sapiens, HCT-116, 16 h, table of Example 1004; HCT116 cells, 16 hours with drug; read-out: EC50 (nM) Range

SMILES | EC50
CC(=O)N1N=C(c2cc(F)ccc2F)S[C@]12c1ccccc1OC[C@@H]2CCCN [compound 1005] | > 500 nM
CC(=O)N1N=C(c2cc(F)ccc2F)S[C@@]12c1ccccc1OC[C@H]2CCCN [compound 1004] | ≤ 500 nM

Same assay, conditions: Homo sapiens, HCT-116, 16 h, table of Example 1801 (headed Table 1201); HCT116 cells, 16 hours with drug; read-out: EC50 (nM) Range

SMILES | EC50
CC(=O)N1N=C(c2cc(Cl)ccc2F)S[C@]12c1ccccc1OC[C@@H]2CCN [compound 1805] | > 1000 nM
CC(=O)N1N=C(c2ccccc2)S[C@]12c1ccccc1OC[C@@H]2CCN [compound 1809] | > 1000 nM
CC(=O)N1N=C(c2cccc(F)c2)S[C@@]12c1ccccc1OC[C@H]2CCN [compound 1810] | ≤ 500 nM
CC(=O)N1N=C(c2ccc(F)c(F)c2)S[C@@]12c1cc(F)ccc1OC[C@H]2CCN [compound 1820] | ≤ 500 nM
CC(=O)N1N=C(c2cccc(C(F)(F)F)c2)S[C@@]12c1ccccc1OC[C@H]2CCN [compound 1814] | ≤ 500 nM
CC(=O)N1N=C(c2cc(F)cc(F)c2)S[C@]12c1cc(F)ccc1OC[C@@H]2CCN [compound 1824] | > 1000 nM

Same assay, conditions: Homo sapiens, HCT-116, 16 h, table of Example 1901; HCT116 cells, 16 hours with drug; read-out: EC50 (nM) Range

SMILES | EC50
CO[C@@H](C)C(=O)N1N=C(c2cc(F)ccc2F)S[C@@]12c1cc(F)cc(F)c1OC[C@H]2CCN [compound 1907] | ≤ 500 nM
COCCOCC(=O)N1N=C(c2cc(F)ccc2F)S[C@@]12c1ccccc1OC[C@H]2CCN [compound 1909] | ≤ 500 nM
CO[C@H](C)C(=O)N1N=C(c2cc(F)ccc2F)S[C@@]12c1cc(F)ccc1OC[C@H]2CCN [compound 1904] | ≤ 500 nM
CO[C@@H](C)C(=O)N1N=C(c2cc(F)ccc2F)S[C@]12c1cc(F)ccc1OC[C@@H]2CCN (single isomer, unassigned) [compound 1901] | > 1000 nM

Same assay, conditions: Homo sapiens, HCT-116, 16 h, table of Example 2001; HCT116 cells, 16 hours with drug; read-out: EC50 (nM) Range

SMILES | EC50
COCC(=O)N1N=C(c2cc(F)ccc2F)S[C@@]12c1ccccc1OC[C@H]2CCN [compound 2004] | ≤ 500 nM
COCC(=O)N1N=C(c2cc(F)ccc2F)S[C@]12c1ccccc1OC[C@@H]2CCN [compound 2003] | ≤ 500 nM

Same assay, conditions: Homo sapiens, HCT-116, 16 h, table of Example 2101; HCT116 cells, 16 hours with drug; read-out: EC50 (nM) Range

SMILES | EC50
CCOC(=O)N1N=C(c2cc(F)ccc2F)S[C@]12c1ccccc1OC[C@@H]2CCN [compound 2104] | ≤ 500 nM

Same assay, conditions: Homo sapiens, HCT-116, 16 h, table of Example 2201; HCT116 cells, 16 hours with drug; read-out: EC50 (nM) Range

SMILES | EC50
CN(C)C(=O)N1N=C(c2cc(F)ccc2F)S[C@]12c1ccccc1OC[C@@H]2CCN [compound 2204] | ≤ 500 nM

Same assay, conditions: Homo sapiens, HCT-116, 16 h, table of Example 2301; HCT116 cells, 16 hours with drug; read-out: EC50 (nM) Range

SMILES | EC50
CC(=O)N1N=C(c2cc(F)ccc2F)SC12c1ccccc1OCC2CCO (centres unmarked) [compound 2301] | ≤ 500 nM

Same assay, conditions: Homo sapiens, HCT-116, 16 h, table of Example 2401; HCT116 cells, 16 hours with drug; read-out: EC50 (nM) Range

SMILES | EC50
CC(=O)N1N=C(c2cc(F)ccc2F)S[C@]12CCNc1ccccc12 [compound 2402] | > 1000 nM

Same assay, conditions: Homo sapiens, HCT-116, 16 h, table of Example 2901; HCT116 cells, 16 hours with drug; read-out: EC50 (nM) Range

SMILES | EC50
CC(=O)N1N=C(c2cc(F)ccc2F)S[C@@]12c1cc(F)ccc1NC[C@H]2CCN [compound 2902] | ≤ 500 nM
CC(=O)N1N=C(c2cc(F)ccc2F)S[C@]12c1cc(F)ccc1NC[C@@H]2CCN [compound 2904] | > 1000 nM
